Measurements: ChEMBL document CHEMBL3112450, “Synthesis and in vitro antitumor evaluation of primary amine substituted quinazoline linked benzimidazole” (Bioorg Med Chem Lett, 2014)

Tests used:
Format in all cases: functional
[1] = system: BT-549; assay: Cytotoxicity against human BT549 cells assessed as cell growth at 10^-5 M after 48 hrs by SRB assay; details: BT-549, 48 h, read-out: Activity
[2] = system: LOX IMVI; assay: Cytotoxicity against human LOXIMVI cells assessed as cell growth at 10^-5 M after 48 hrs by SRB assay; details: read-out: Activity
[3] = system: MCF7; assay: Cytotoxicity against human MCF7 cells assessed as cell growth at 10^-5 M after 48 hrs by SRB assay; details: MCF7, 48 h, read-out: Activity
[4] = Cytotoxicity against human OVCAR4 cells assessed as cell growth at 10^-5 M after 48 hrs by SRB assay; details: OVCAR-4, 48 h, read-out: Activity
[5] = system: SK-MEL-2; assay: Cytotoxicity against human SK-MEL-2 cells assessed as cell growth at 10^-5 M after 48 hrs by SRB assay; details: SK-MEL-2, 48 h, read-out: Activity
[6] = system: MOLT-4; assay: Cytotoxicity against human MOLT4 cells assessed as cell growth at 10^-5 M after 48 hrs by SRB assay; details: MOLT-4, 48 h, read-out: Activity
[7] = Cytotoxicity against human UACC257 cells assessed as cell growth at 10^-5 M after 48 hrs by SRB assay; details: UACC-257, 48 h, read-out: Activity
[8] = system: M14; assay: Cytotoxicity against human M14 cells assessed as cell growth at 10^-5 M after 48 hrs by SRB assay; details: M14, 48 h, read-out: Activity
[9] = system: NCI-H522; assay: Cytotoxicity against human NCI-H522 cells assessed as cell growth at 10^-5 M after 48 hrs by SRB assay; details: NCI-H522, 48 h, read-out: Activity
[10] = system: SF-268; assay: Cytotoxicity against human SF268 cells assessed as cell growth at 10^-5 M after 48 hrs by SRB assay; details: SF-268, 48 h, read-out: Activity
[11] = system: NCI-H23; assay: Cytotoxicity against human NCI-H23 cells assessed as cell growth at 10^-5 M after 48 hrs by SRB assay; details: NCI-H23, 48 h, read-out: Activity
[12] = system: HOP-62; assay: Cytotoxicity against human HOP62 cells assessed as cell growth at 10^-5 M after 48 hrs by SRB assay; details: HOP-62, 48 h, read-out: Activity
[13] = system: HCC 2998; assay: Cytotoxicity against human HCC2998 cells assessed as cell growth at 10^-5 M after 48 hrs by SRB assay; details: HCC 2998, 48 h, read-out: Activity
[14] = system: SK-MEL-5; assay: Cytotoxicity against human SK-MEL-5 cells assessed as cell growth at 10^-5 M after 48 hrs by SRB assay; details: SK-MEL-5, 48 h, read-out: Activity
[15] = system: SW-620; assay: Cytotoxicity against human SW620 cells assessed as cell growth at 10^-5 M after 48 hrs by SRB assay; details: SW-620, 48 h, read-out: Activity
[16] = system: OVCAR-8; assay: Cytotoxicity against human OVCAR8 cells assessed as cell growth at 10^-5 M after 48 hrs by SRB assay; details: OVCAR-8, 48 h, read-out: Activity
[17] = system: A549; assay: Cytotoxicity against human A549 cells assessed as cell growth at 10^-5 M after 48 hrs by SRB assay; details: A549, 48 h, read-out: Activity
[18] = system: MDA-MB-435; assay: Cytotoxicity against human MDA-MB-435 cells assessed as cell growth at 10^-5 M after 48 hrs by SRB assay; details: MDA-MB-435, 48 h, read-out: Activity
[19] = system: HCT-15; assay: Cytotoxicity against human HCT15 cells assessed as cell growth at 10^-5 M after 48 hrs by SRB assay; details: HCT-15, 48 h, read-out: Activity
[20] = system: IGROV-1; assay: Cytotoxicity against human IGROV1 cells assessed as cell growth at 10^-5 M after 48 hrs by SRB assay; details: IGROV-1, 48 h, read-out: Activity
[21] = system: A498; assay: Cytotoxicity against human A498 cells assessed as cell growth at 10^-5 M after 48 hrs by SRB assay; details: A498, 48 h, read-out: Activity
[22] = Cytotoxicity against human Hs578T cells assessed as cell growth at 10^-5 M after 48 hrs by SRB assay; details: Hs-578T, read-out: Activity
[23] = system: SN12C; assay: Cytotoxicity against human SN12C cells assessed as cell growth at 10^-5 M after 48 hrs by SRB assay; details: read-out: Activity
[24] = system: K562; assay: Cytotoxicity against human K562 cells assessed as cell growth at 10^-5 M after 48 hrs by SRB assay; details: K562, 48 h, read-out: Activity
[25] = system: OVCAR-3; assay: Cytotoxicity against human OVCAR3 cells assessed as cell growth at 10^-5 M after 48 hrs by SRB assay; details: OVCAR-3, 48 h, read-out: Activity
[26] = Cytotoxicity against human OVCAR5 cells assessed as cell growth at 10^-5 M after 48 hrs by SRB assay; details: OVCAR-5, 48 h, read-out: Activity
[27] = system: RXF 393; assay: Cytotoxicity against human RXF393 cells assessed as cell growth at 10^-5 M after 48 hrs by SRB assay; details: RXF 393, 48 h, read-out: Activity
[28] = system: Malme-3M; assay: Cytotoxicity against human MALME-3M cells assessed as cell growth at 10^-5 M after 48 hrs by SRB assay; details: read-out: Activity
[29] = system: HL-60(TB); assay: Cytotoxicity against human HL-60(TB) cells assessed as cell growth at 10^-5 M after 48 hrs by SRB assay; details: HL-60, 48 h, read-out: Activity
[30] = system: SK-MEL-28; assay: Cytotoxicity against human SK-MEL-28 cells assessed as cell growth at 10^-5 M after 48 hrs by SRB assay; details: SK-MEL-28, 48 h, read-out: Activity
[31] = system: KM12; assay: Cytotoxicity against human KM12 cells assessed as cell growth at 10^-5 M after 48 hrs by SRB assay; details: KM12, 48 h, read-out: Activity
[32] = system: HT-29; assay: Cytotoxicity against human HT-29 cells assessed as cell growth at 10^-5 M after 48 hrs by SRB assay; details: HT-29, 48 h, read-out: Activity
[33] = system: 786-0; assay: Cytotoxicity against human 786-0 cells assessed as cell growth at 10^-5 M after 48 hrs by SRB assay; details: 786-0, 48 h, read-out: Activity
[34] = system: NCI-H322M; assay: Cytotoxicity against human NCI-H322M cells assessed as cell growth at 10^-5 M after 48 hrs by SRB assay; details: read-out: Activity
[35] = Cytotoxicity against human NCI-ADR-RES cells assessed as cell growth at 10^-5 M after 48 hrs by SRB assay; details: read-out: Activity
[36] = system: SK-OV-3; assay: Cytotoxicity against human SKOV3 cells assessed as cell growth at 10^-5 M after 48 hrs by SRB assay; details: SK-OV-3, 48 h, read-out: Activity
[37] = system: SNB-75; assay: Cytotoxicity against human SNB75 cells assessed as cell growth at 10^-5 M after 48 hrs by SRB assay; details: SNB-75, 48 h, read-out: Activity

Row | SMILES | growth at 10 µM [1] [%] | growth at 10 µM [2] [%] | growth at 10 µM [3] [%] | growth at 10 µM [4] [%] | growth at 10 µM [5] [%] | growth at 10 µM [6] [%] | growth at 10 µM [7] [%] | growth at 10 µM [8] [%] | growth at 10 µM [9] [%] | growth at 10 µM [10] [%] | growth at 10 µM [11] [%] | growth at 10 µM [12] [%] | growth at 10 µM [13] [%] | growth at 10 µM [14] [%] | growth at 10 µM [15] [%] | growth at 10 µM [16] [%] | growth at 10 µM [17] [%] | growth at 10 µM [18] [%] | growth at 10 µM [19] [%] | growth at 10 µM [20] [%] | also measured
1 | C=CCn1c(C)nc2ccc(Nc3nc(NCCO)nc4ccccc34)cc21 | 96.5 | 88.5 | 93.7 | 88.4 | 127 | 96.7 | 100 | 111 | 101 | 92.5 | 92.7 | 97.6 | 110 | 96.5 | 97.7 | 99 | 99.9 | 102 | 113 | 90.1 | growth at 10 µM [21]: 78.3%; growth at 10 µM [22]: 91.5%; growth at 10 µM [23]: 87.6%; growth at 10 µM [24]: 92.2%; growth at 10 µM [25]: 98.3%; growth at 10 µM [26]: 107%; growth at 10 µM [27]: 116%; growth at 10 µM [28]: 111%; growth at 10 µM [29]: 114%; growth at 10 µM [30]: 99.3%; growth at 10 µM [31]: 102%; growth at 10 µM [32]: 103%; growth at 10 µM [33]: 95.7%; growth at 10 µM [34]: 100%; growth at 10 µM [35]: 106%; growth at 10 µM [36]: 109%; growth at 10 µM [37]: 92.5%
2 | C=CCn1c(C)nc2cc(Nc3nc(Nc4ccc5nc(C)n(CC=C)c5c4)nc4ccccc34)ccc21 | 106 | 93.3 | 92.4 | 99.5 | 121 | 101 | 102 | 109 | 99.1 | 113 | 94.2 | 101 | 104 | 99.7 | 106 | 98.9 | 96.3 | 108 | 107 | 102 | growth at 10 µM [21]: 125%; growth at 10 µM [22]: 100%; growth at 10 µM [23]: 96.5%; growth at 10 µM [24]: 102%; growth at 10 µM [25]: 108%; growth at 10 µM [26]: 107%; growth at 10 µM [27]: 124%; growth at 10 µM [28]: 94.5%; growth at 10 µM [29]: 84%; growth at 10 µM [30]: 106%; growth at 10 µM [31]: 109%; growth at 10 µM [32]: 103%; growth at 10 µM [33]: 113%; growth at 10 µM [34]: 109%; growth at 10 µM [35]: 101%; growth at 10 µM [36]: 104%; growth at 10 µM [37]: 90.8%
3 | C=CCn1c(C)nc2ccc(Nc3nc(Sc4ccc(N)cc4)nc4ccccc34)cc21 | 87.9 | 97 | 93.2 | 88.5 | 109 | 88.2 | 110 | 109 | 89.5 | 109 | 101 | 104 | 103 | 84.1 | 108 | 63.7 | 89.8 | 96.9 | 96.5 | 102 | growth at 10 µM [21]: 48.5%; growth at 10 µM [22]: 98.1%; growth at 10 µM [23]: 93.9%; growth at 10 µM [24]: 92.5%; growth at 10 µM [25]: 106%; growth at 10 µM [26]: 118%; growth at 10 µM [27]: 144%; growth at 10 µM [28]: 123%; growth at 10 µM [29]: 98.8%; growth at 10 µM [30]: 104%; growth at 10 µM [31]: 96.8%; growth at 10 µM [32]: 97.3%; growth at 10 µM [33]: 102%; growth at 10 µM [34]: 102%; growth at 10 µM [35]: 97.8%; growth at 10 µM [36]: 124%; growth at 10 µM [37]: 98.2%
